Laboratory results reported in patent US20120252045A1, “METHOD OF ASSESSING ISLET FUNCTION” (priority 2009, published 2012).
Like-named read-outs stand apart in the source and are kept apart here.

Columns and labels:
[1] = test system: β-TC6 cells; details: n=4
Experimental: (§1) Porcine islet OCRs were assessed in triplicate aliquots of 1000 IEQ. Controls comprising media alone and heat-killed islets (1000 IEQ ×3 incubated for 1 hour at 60° C.) were assayed in parallel. OCRs were measured using a fiber optic sensor oxygen monitoring system (Instech Laboratories Plymouth Meeting, Pa.), which quantifies the decrease in oxygen partial pressure (pO2) over time, as described by Papas et al., “A Stirred Microchamber for Oxygen Consumption Rate Measurements with Pancreatic Islet Cells,” Biotechnol Bioeng 2007; 98: 1071-1082. OCRs were standardized to the amount of DNA in each chamber (nmol/min-mgDNA), which was determined using a Quant-iT PicoGreen dsDNA kit (Molecular Probes, Eugene, Oreg.).
Reductions in OCR were assessed by comparing the effect of the NaAz on the OCR measurements to the OCR capability of non-treated cells. BTC6 cells and Hela cells were incubated on 150 mm culture dishes for 2 days in a 37° C. incubator with a 5% CO2 environment. The cells were then removed using 5 mM EDTA/PBS and washed once with PBS. The resulting cell pellet was resuspended in 5 mL of DMEM (Sigma) supplemented with 5% FCS (Sigma) and Penicillin/Streptomycin (Invitrogen). Cells were then incubated with various concentrations (0.01, 0.1, 1.0 and 10 mg/ml) of sodium azide (Sigma) for 10 minutes prior to measuring their oxygen consumption rates.

[2] = test system: adult porcine islets; details: vs non-NaAz treated cells
Experimental: as §1
The experiment was repeated 3 times.

[N-]=[N+]=[N-] [NaAz, sodium azide]
reduction in OCR ([1]; β-TC6 cells incubated with 0.1 mg/ml NaAz for 10 minutes): 29.8±4.5% | reduction in OCR ([1]; β-TC6 cells incubated with 1 mg/ml NaAz for 10 minutes): 71.2±6.6% | reduction in OCR ([1]; β-TC6 cells incubated with 10 mg/ml NaAz for 10 minutes): 85.9±2.3% | reduction in OCR ([2]; islets incubated with 0.1 mg/ml NaAz for 10 minutes): 37.6% | reduction in OCR ([2]; islets incubated with 1 mg/ml NaAz for 10 minutes): 59.7% | reduction in OCR ([2]; islets incubated with 10 mg/ml NaAz for 10 minutes): 84.2%
